Measurements reported in PMC5449500, “Comparative Effects of Chloride Channel Inhibitors on LRRC8/VRAC-Mediated Chloride Conductance” (Frontiers in Pharmacology, 2017).
Values joined by “and” are separate entries in the source; they are usually repeats but may differ in a detail not shown here. Equal entries are not always repeated. “Also recorded” adds a separate entry of the source. Where two headings read alike, the source gives them in different places.

Legend:
CFTR = conditions: cited from earlier work
HEK-293 WT cells = assay: Regulatory volume decrease (RVD) after hypotonic challenge, calcein fluorescence self-quenching; type: cell-based, human; conditions: for RVD inhibition at 10 μM (%) / inhibition at 10 µM: 10 μM inhibitor, after 30 min; for inhibition at 10 µM: Homo sapiens, HEK293, 0.5 h; for Effect on RVD at 30 μM: 30 μM inhibitor
Experimental: Measurements of changes in cell volume were performed using the calcein fluorescence self-quenching method. Briefly, calcein at high concentrations undergoes spontaneous self-quenching, and its fluorescence intensity decreases with increasing calcein concentration ([Capó-Aponte et al., 2005]). The variation in the fluorescence due to self-quenching indirectly reflects the volume of the cell.
HEK-293 WT and HEK-293 LRRC8-KO cells were cultured on polylysine-coated 24-well plates for 2 days. The cells were then loaded for 40 min with a solution containing 10 μM calcein-AM (Sigma–Aldrich) and washed 3 times with 1 ml of isotonic medium containing (in mM) 145 NaCl, 5 KCl, 1 MgCl2, 1 CaCl2, 10 glucose, and 10 HEPES pH 7.4 (300 mOsm.l^-1). Under this control experimental condition, basal fluorescence was measured every 90 s for 10 min using a plate reader (Ex: 460 nm, Em: 520 nm; Synergy HT, Biotek). After the baseline recording period (10 min), the medium was exchanged and replaced with iso- or hypo-osmotic bath solution adjusted to 200, 150, or 100 mOsm.l^-1. The change in fluorescence induced by replacement of the medium was then recorded over the following 50 min. The experiments were performed under control conditions and in the presence of various concentrations of inhibitors. The percent inhibition resulting from exposure of the cells to solutions containing a concentration of 10 μM for each inhibitor was calculated after maintaining the cells in hypotonic bath solution in the presence of the inhibitor for 30 min.

LRRC8/VRAC = target: T1, LRRC8/VRAC (Homo sapiens, UniProt Q8IWT6); assay: Patch-clamp whole-cell recording of hypotonicity-activated VRAC/LRRC8 chloride current (ICl,swell); type: cell-based; conditions: for Inhibition at 10 μM (%) of chloride conductance / inhibition at 10 µM: 10 μM inhibitor, -100 mV; for Effect on hypotonic-activated Cl- currents at 20 μM / inhibition at 20 µM: 20 μM inhibitor; for inhibition at 10 µM: read-out: Inhibition at 10 μM (%) of chloride conductance; for Hill coefficient (chloride conductance): WT HEK-293, fitted concentration-response curve at -100 mV; for IC50: read-out: IC50 (chloride conductance)
T1 construct: tested in wild-type HEK-293 cells expressing LRRC8 proteins; endogenous in cells; host or cells: wild-type HEK-293 cells
T1 sequence (Q8IWT6 1-810): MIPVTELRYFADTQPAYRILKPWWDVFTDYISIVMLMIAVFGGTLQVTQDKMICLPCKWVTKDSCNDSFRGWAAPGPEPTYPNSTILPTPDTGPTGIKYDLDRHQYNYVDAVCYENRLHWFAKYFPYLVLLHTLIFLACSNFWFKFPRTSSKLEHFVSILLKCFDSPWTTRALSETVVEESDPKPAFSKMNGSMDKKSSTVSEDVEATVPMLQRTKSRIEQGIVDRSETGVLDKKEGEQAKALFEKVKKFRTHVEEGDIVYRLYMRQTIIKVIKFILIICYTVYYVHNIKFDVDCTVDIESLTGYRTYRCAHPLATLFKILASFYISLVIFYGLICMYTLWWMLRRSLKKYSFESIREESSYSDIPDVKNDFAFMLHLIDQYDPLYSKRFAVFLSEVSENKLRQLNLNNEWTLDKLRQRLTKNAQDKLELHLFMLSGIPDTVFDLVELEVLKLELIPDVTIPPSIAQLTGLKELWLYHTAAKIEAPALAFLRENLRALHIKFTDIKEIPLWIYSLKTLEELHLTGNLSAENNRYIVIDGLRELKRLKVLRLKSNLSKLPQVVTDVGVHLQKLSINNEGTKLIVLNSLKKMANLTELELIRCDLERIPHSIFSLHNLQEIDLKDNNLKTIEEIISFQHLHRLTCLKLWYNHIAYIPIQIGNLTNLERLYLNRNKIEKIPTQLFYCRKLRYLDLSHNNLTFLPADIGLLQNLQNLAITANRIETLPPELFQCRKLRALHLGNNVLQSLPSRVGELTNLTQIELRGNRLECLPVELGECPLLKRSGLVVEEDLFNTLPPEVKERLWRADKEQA
T1 sequence (Q7L1W4 1-858 partner): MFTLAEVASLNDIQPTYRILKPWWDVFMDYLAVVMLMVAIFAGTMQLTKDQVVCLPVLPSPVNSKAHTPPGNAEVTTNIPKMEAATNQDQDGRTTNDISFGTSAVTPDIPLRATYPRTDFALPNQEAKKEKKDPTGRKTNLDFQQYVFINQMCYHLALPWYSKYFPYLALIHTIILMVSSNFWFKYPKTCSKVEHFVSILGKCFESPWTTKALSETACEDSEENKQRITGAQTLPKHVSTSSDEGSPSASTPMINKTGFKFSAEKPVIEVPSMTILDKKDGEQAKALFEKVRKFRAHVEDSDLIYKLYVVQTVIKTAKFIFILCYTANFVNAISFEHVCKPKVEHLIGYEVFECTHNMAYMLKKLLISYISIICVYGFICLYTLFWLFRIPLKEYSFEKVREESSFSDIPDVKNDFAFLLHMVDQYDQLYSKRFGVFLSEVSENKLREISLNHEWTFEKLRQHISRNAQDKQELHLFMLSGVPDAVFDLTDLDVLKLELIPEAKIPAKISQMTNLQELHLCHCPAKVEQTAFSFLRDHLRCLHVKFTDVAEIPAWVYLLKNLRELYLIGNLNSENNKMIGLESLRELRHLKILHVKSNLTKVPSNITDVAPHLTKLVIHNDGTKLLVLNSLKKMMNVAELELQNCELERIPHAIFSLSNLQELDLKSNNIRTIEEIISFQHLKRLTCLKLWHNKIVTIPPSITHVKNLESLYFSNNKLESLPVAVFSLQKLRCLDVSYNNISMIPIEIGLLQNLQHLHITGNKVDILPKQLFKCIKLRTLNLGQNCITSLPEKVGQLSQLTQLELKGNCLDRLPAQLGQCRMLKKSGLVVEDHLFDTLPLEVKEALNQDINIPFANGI
Experimental: The ruptured-whole-cell configuration of the patch-clamp technique was used to measure the activation of VRAC conductance during hypotonic experimental conditions. Cell currents and cell capacitances were recorded using an EPC 10 amplifier [HEKA Elektronik, Lambrecht (Pfalz), Germany]. The membrane potential of the cells was held at -50 mV, and 400-ms pulses from -100 to +100 mV were applied in 20-mV increments. The I/V relationships were expressed as the mean current amplitudes measured at all potentials at 6–10 ms after the pulse onset.
The pipette solution contained (in mM) 140 NMDGCl, 10 HEPES (pH 7.4, HCl), 5 EGTA and 5 MgATP (290 mOsm.l^-1). The normal NMDGCl bath solution contained (in mM) 140 NMDGCl, 10 HEPES (pH 7.4, HCl), 1 CaCl2, 1 MgCl2, and ∼70 mannitol (340 mOsm.l^-1). This solution was designed to prevent the spontaneous activation of VRAC currents. Hypo-osmotic NMDGCl solution (270 mOsm.l^-1) was obtained by removing the mannitol from the NMDGCl bath solution.
Patch-clamp whole-cell recordings were performed in iso-osmotic bath solution (control condition), and the solution was rapidly exchanged to the hypo-osmotic solution. The hypotonic condition was maintained until the LRRC8/VRAC current had stabilized at its maximal value (3–6 min). The percent inhibition at each concentration of inhibitor was calculated at -100 mV holding potentials after at least 2 min of constant perfusion.
Concentration-response curves, IC50 and Hill slope were fitted and determined using the following equations:
Span=Top−Bottom y=Bottom+(Top−Bottom)/1+10^(LogIC50−x)^*Hill Slope

[1] = test system: other chloride channels (CFTR, CaCC, ClC); set-up: method as in Decher et al. (2001); conditions: 10 μM; ref Decher et al. (2001); cited from earlier work
ICl,swell = test system: ICl,swell; set-up: method as in Decher et al. (2001); conditions: ref Decher et al. (2001); cited from earlier work
CaCC = test system: CaCC; set-up: method as in Namkung et al. (2013); conditions: ref Namkung et al. (2013); cited from earlier work
[2] = 100 mOsm.l^-1 hypotonic challenge
[3] = whole-cell, WT HEK-293, hypotonic solution 270 mOsm.l^-1, calculated at -100 mV
[4] = 100 mOsm.l^-1 hypotonic challenge, 10 µM

O=C(O)c1ccc(/C=C2\SC(=S)N(c3cccc(C(F)(F)F)c3)C2=O)cc1 [CFTRinh-172]
IC50 (CFTR; ref Ma et al., 2002, read-out: IC50 (CFTR)): 0.3 µM | RVD inhibition at 10 μM (%) (HEK-293 WT cells; [2]): No effect | Effect on RVD at up to 20 μM (HEK-293 WT cells; concentrations of up to 20 μM): no significant effect | Effect on RVD at doses lower than 30 μM (HEK-293 WT cells; lower doses than 30 μM): ineffective | Inhibition at 10 μM (%) of chloride conductance (LRRC8/VRAC; whole-cell): No effect | Effect on hypotonic-activated Cl- currents at 20 μM (LRRC8/VRAC; whole-cell): minor effect | Effect on hypotonic-activated Cl- currents at up to 10 μM (LRRC8/VRAC; concentrations of up to 10 μM, whole-cell): almost no effect | Effect on VRAC current at up to 20 μM (LRRC8/VRAC; concentrations of up to 20 μM): no significant effect | IC50 (chloride conductance) (LRRC8/VRAC; [3]): No effect

CCCCC1(C2CCCC2)Cc2cc(OCCCC(=O)O)c(Cl)c(Cl)c2C1=O (stereo not shown) [DCPIB, 4-(2-butyl-6,7-dichlor-2-cyclopentyl-indan-1-on-5-yl) oxybutyric acid]
Effect on other chloride channels (CFTR, CaCC, ClC) [1]: without any effect | Block of ICl,swell at 10 μM (ICl,swell): more than 80% | RVD inhibition at 10 μM (%) (HEK-293 WT cells; [4]): 35.8 ± 3.1% | Effect on RVD at 20 μM (HEK-293 WT cells; 20 μM inhibitor, 100 mOsm.l^-1 hypotonic challenge): maximal effect; also recorded: completely impaired volume regulation | inhibition at 10 µM (HEK-293 WT cells; [2]): 36 ± 3% | inhibition at 10 µM (LRRC8/VRAC; whole-cell): 82.7 ± 3.2% | Effect on hypotonic-activated Cl- currents at 20 μM (LRRC8/VRAC; whole-cell): full blockade | inhibition at 20 µM (LRRC8/VRAC; whole-cell): > 90% | Hill coefficient (chloride conductance) (LRRC8/VRAC; whole-cell): 2.9 ± 1.1 | IC50 (LRRC8/VRAC; [3]): 5 µM and 4.8 µM

O=C(CNc1ccc2ccccc2c1)N/N=C/c1cc(Br)c(O)c(Br)c1O [GlyH-101]
IC50 (CFTR; ref Muanprasat et al., 2004, read-out: IC50 for CFTR): ~5 µM | inhibition at 10 µM (LRRC8/VRAC; whole-cell): 46.6 ± 8.8% | inhibition at 20 µM (LRRC8/VRAC; whole-cell): > 85% | Hill coefficient (chloride conductance) (LRRC8/VRAC; whole-cell): 0.9 ± 0.4 | IC50 (LRRC8/VRAC; [3]): 10 µM and 9.5 µM

O=C(O)c1cccnc1Nc1cccc(C(F)(F)F)c1 [NFA, niflumic acid]
RVD inhibition at 10 μM (%) (HEK-293 WT cells; [4]): 19.9 ± 7.2% | Effect on RVD at 30 μM (HEK-293 WT cells; [2]): maximally inhibited the RVD process | inhibition at 10 µM (HEK-293 WT cells; [2]): 20 ± 7% | Inhibition at 10 μM (%) of chloride conductance (LRRC8/VRAC; whole-cell, 10 µM): 22.5 ± 4.0% | inhibition at 10 µM (LRRC8/VRAC; whole-cell): 23 ± 4% | Effect on hypotonically activated Cl- current at 100 μM (LRRC8/VRAC; 100 μM inhibitor, whole-cell): maximal inhibitory effect | Hill coefficient (chloride conductance) (LRRC8/VRAC; whole-cell): 0.8 ± 0.4 | IC50 (LRRC8/VRAC; [3]): 55 µM and 55.2 µM

Cc1ccc(C2Nc3ccccc3-n3c(-c4ccccc4)c4c(=O)n(C)c(=O)n(C)c4c32)o1 (stereo not shown) [PPQ-102]
IC50 (CFTR; ref Tradtrantip et al., 2009, read-out: IC50 (CFTR)): < 0.1 µM | RVD inhibition at 10 μM (%) (HEK-293 WT cells; [4]): 29.8 ± 5.9% | Effect on RVD at 30 μM (HEK-293 WT cells; [2]): fully inhibited RVD | inhibition at 10 µM (HEK-293 WT cells; [2]): 30 ± 6% | Effect on ICl,swell at 1 μM (LRRC8/VRAC; 1 μM inhibitor, whole-cell): ineffective | inhibition at 10 µM (LRRC8/VRAC; whole-cell): 18.3 ± 11.3% | inhibition at 30 µM (LRRC8/VRAC; 30 μM inhibitor, whole-cell): > 85% | Hill coefficient (chloride conductance) (LRRC8/VRAC; whole-cell): 2.2 ± 1.2 | IC50 (LRRC8/VRAC; [3]): 20 µM and 19.6 µM

CCc1c(C)nc(SCC(=O)Nc2nc(-c3ccc(OC)cc3)cs2)[nH]c1=O [T16Ainh-A01]
IC50 (CaCC): 1 µM | RVD inhibition at 10 μM (%) (HEK-293 WT cells; [4]): 39.8 ± 9.6% | Effect on RVD at 30 μM (HEK-293 WT cells; [2]): maximal effect | inhibition at 10 µM (HEK-293 WT cells; [2]): 40 ± 10% | inhibition at 3 µM (LRRC8/VRAC; 3 μM inhibitor, whole-cell, read-out: Inhibition of hypotonically activated Cl- current at 3 μM): 23 ± 5% | inhibition at 10 µM (LRRC8/VRAC; whole-cell): 58.4 ± 2% | Hill coefficient (chloride conductance) (LRRC8/VRAC; whole-cell): 1.5 ± 0.6 | IC50 (LRRC8/VRAC; [3]): 6 µM and 5.5 µM
